Results: patent US4076821A (priority 1976, dated 1978)

Tests used:
[1] = animal or person; type: in vivo; settings: Rattus norvegicus, po, read-out: ED50, anti-apomorphine effect
[2] = in vivo; settings: mouse, po

SMILES | ED50 [1] [mg/kg] | LD50 [2] [mg/kg]
O=C1NCN(c2ccc(Cl)cc2)C12CCN(C1CCC(c3ccc(F)cc3)(c3ccc(F)cc3)CC1)CC2 [Test Compound E, 8-[4,4-bis(p-fluorophenyl)cyclohexyl]-1-(p-chlorophenyl)-1,3,8-triazaspiro[4.5]decan-4-one] | 0.28 | ≥ 464
O=C(CCCN1CCC(O)(c2ccc(Cl)cc2)CC1)c1ccc(F)cc1 [Haloperidol, 1-[3-(p-fluorobenzoyl)propyl]-4-(p-chlorophenyl)-4-piperidinol, reference compound] | 0.5 | > 100
O=C1NCN(c2ccc(F)cc2)C12CCN(C1CCC(c3ccc(F)cc3)(c3ccc(F)cc3)CC1)CC2 [Test Compound B, 8-[4,4-bis(p-fluorophenyl)cyclohexyl]-1-(p-fluorophenyl)-1,3,8-triazaspiro[4.5]decan-4-one] | 0.1 | 
O=c1[nH]c2ccccc2n1C1CCN(CCCC(c2ccc(F)cc2)c2ccc(F)cc2)CC1 [Pimozide, 1-[1-(4,4-bis(p-fluorophenyl)butyl)-4-piperidyl]-2-benzimidazolinone, reference compound] | 0.25 | > 1000
Cl.OC1(c2ccc(Cl)c(C(F)(F)F)c2)CCN(C2CCC(c3ccc(F)cc3)(c3ccc(F)cc3)CC2)CC1 [Test Compound A, 1-[4,4-bis(p-fluorophenyl)cyclohexyl]-4-(4-chloro-3-trifluoromethylphenyl)-4-piperidinol hydrochloride] | 2.46 | ≥ 464
